Among the data in US11584755B2 (IDEAYA BIOSCIENCES, INC., priority 2017, dated 2023) are IC50 values, retold here.

Common to all, as to format: biochemical
The target of one assay is hXPG (Homo sapiens (Human), UniProt P28715). Nature of the assay: Enzymatic IC50 assay, FAM-labeled DNA oligomer substrate, fluorescence intensity (XPG). The settings on record: hXPG 100 nM, substrate 100 nM, reaction time 120 minutes, 23° C. On the procedure: (§1) FEN1, EXO1 or XPG enzyme was incubated with compound or vehicle (DMSO) and the FAM-labeled DNA oligomer substrate in a microtiter plate. The stop buffer contains EDTA to stop the enzymatic reaction. The plate is read for fluorescence intensity. The high control (DMSO) with high fluorescence intensity represents no inhibition of enzymatic reaction while the low control (10 μM) with low fluorescence intensity represents full inhibition of enzymatic reaction.
hXPG, sequence (P28715 whole entry, canonical isoform): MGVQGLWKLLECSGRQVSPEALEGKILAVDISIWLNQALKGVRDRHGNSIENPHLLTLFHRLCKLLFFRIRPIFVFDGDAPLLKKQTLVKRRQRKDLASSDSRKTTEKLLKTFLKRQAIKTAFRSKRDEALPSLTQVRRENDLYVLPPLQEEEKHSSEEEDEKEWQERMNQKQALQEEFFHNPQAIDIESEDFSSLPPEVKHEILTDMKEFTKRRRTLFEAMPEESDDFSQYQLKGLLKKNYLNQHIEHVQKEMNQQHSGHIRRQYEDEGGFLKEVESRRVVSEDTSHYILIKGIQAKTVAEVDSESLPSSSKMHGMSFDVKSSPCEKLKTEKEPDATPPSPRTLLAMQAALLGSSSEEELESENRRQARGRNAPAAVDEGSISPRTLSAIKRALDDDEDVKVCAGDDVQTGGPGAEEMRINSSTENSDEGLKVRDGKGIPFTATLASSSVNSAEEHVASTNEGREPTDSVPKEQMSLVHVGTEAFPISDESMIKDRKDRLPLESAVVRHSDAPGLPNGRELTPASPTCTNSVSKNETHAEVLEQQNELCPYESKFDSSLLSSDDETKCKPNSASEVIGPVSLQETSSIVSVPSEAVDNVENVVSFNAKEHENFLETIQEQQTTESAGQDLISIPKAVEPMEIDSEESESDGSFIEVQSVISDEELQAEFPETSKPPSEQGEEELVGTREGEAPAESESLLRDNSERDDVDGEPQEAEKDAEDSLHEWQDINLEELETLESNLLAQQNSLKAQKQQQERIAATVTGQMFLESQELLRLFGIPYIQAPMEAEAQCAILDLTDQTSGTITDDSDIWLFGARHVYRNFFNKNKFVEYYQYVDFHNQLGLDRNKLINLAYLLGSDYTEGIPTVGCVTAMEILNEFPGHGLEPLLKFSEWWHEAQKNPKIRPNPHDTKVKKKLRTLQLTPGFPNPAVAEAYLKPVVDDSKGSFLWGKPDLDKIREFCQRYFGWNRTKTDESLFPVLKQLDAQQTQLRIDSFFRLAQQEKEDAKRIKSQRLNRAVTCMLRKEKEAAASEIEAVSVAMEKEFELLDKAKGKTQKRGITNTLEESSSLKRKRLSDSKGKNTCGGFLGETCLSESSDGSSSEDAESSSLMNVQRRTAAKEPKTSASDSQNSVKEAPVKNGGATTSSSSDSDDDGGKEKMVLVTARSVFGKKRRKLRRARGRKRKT
(§2) • FEN1 • hFEN1: 70 pM • Substrate: 100 nM • Reaction time: 20 minutes • EXO1 • hEXO1: 6 nM, Isoforml • Substrate: 30 nM • Reaction time: 60 minutes • XPG • hXPG: 100 nM • Substrate: 100 nM • Reaction time: 120 minutes
(§3) Annealing Buffer: 50 mM Tris-HCl, 50 mM NaCl, 1 mM DTT Assay buffer: 50 mM Tris-HCl pH 8.0, 10 mM MgCl2, 0.01% BSA, 1 mM DTT Stop buffer: 50 mM EDTA in assay buffer Temperature: 23° C. Total volume: 40 μl Controls: • 0% inhibition control: DMSO • 100% inhibition control: 10 μM (final) 5-chloro-3-hydroxy-1,3-dihydroquinazoline-2,4-dione Enzyme Reaction and Detection: • 1. Prepare 25 μM intermediate stock of the substrate by diluting SEQ ID NO:1, SEQ ID NO:2, and SEQ ID NO:3 in annealing buffer, in a PCR tube. • 2. Place the PCR tube on a heat block, heat at 95° C. for 3 minutes, then drop in 0.2° C. increments over 2 minutes, stopping at 25° C. • 3. Remove the tube and let the tube cool at room temperature. • 4. Transfer 10 μL of 3× final concentration test compounds or DMSO to the appropriate wells of a microtiter plate. • 5. Transfer 10 μL of 3× final concentration enzyme in assay buffer or assay buffer alone to the appropriate wells. • 6. Incubate the plate at room temperature for 15 minutes. • 7. Transfer 10 μL of 3× substrate in assay buffer to all the test wells. • 8. Incubate the plate at room temperature for prescribed reaction time. • 9. Centrifuge the plate at 1000 rpm for 1 minute. • 10. Transfer 10 μL of stop buffer to all the test wells. • 11. Centrifuge the plate at 1000 rpm for 1 minute. • 12. Read the plate on a plate reader.

For another assay, the target named is hFEN1 (Homo sapiens (Human), UniProt P39748). Briefly: Enzymatic IC50 assay, FAM-labeled DNA oligomer substrate, fluorescence intensity (FEN1). The conditions noted are these: hFEN1 70 pM, substrate 100 nM, reaction time 20 minutes, 23° C. The essentials:
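FEN1, EXO1 or XPG was preincubated 15 min with compound, then the FAM-labelled DNA oligomer substrate was added in Tris-HCl pH 8.0 with 10 mM MgCl2 at 23° C. FEN1 was 70 pM with 100 nM substrate for 20 min, EXO1 6 nM with 30 nM for 60 min, and XPG 100 nM with 100 nM for 120 min. Reactions were EDTA-stopped and read by fluorescence intensity.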

The target of another assay is hEXO1, Isoform1 (Homo sapiens (Human), UniProt Q9UQ84). Nature of the assay: Enzymatic IC50 assay, FAM-labeled DNA oligomer substrate, fluorescence intensity (EXO1). The settings on record: hEXO1 6 nM, substrate 30 nM, reaction time 60 minutes, 23° C. On the procedure: as §1, §2, §3
hEXO1, Isoform1, sequence (Q9UQ84 whole entry, canonical isoform): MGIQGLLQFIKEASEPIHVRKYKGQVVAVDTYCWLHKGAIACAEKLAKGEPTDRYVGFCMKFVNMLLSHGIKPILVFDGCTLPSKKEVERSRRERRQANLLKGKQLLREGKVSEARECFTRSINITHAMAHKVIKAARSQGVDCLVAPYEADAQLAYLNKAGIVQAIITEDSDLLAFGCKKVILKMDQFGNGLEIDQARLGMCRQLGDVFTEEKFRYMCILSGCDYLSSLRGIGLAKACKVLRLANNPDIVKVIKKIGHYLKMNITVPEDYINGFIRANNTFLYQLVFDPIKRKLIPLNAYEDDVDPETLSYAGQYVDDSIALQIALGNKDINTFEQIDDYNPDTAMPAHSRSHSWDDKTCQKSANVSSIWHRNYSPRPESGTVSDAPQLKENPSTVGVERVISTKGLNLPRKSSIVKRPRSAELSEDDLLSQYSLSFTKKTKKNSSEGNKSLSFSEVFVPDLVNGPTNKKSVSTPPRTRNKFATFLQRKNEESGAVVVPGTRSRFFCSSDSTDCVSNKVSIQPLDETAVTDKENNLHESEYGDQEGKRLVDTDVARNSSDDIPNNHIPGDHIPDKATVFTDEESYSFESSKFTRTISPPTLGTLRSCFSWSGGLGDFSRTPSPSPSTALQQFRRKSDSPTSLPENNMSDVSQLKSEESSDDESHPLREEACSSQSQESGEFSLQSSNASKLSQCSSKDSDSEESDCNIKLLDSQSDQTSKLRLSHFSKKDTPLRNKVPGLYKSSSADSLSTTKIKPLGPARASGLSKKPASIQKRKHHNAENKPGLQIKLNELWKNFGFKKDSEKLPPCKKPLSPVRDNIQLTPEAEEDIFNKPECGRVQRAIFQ

By IC50 is commonly meant the concentration that gives 50% inhibition.

Bounds are passed on as bounds.

hFEN1, sequence (P39748 whole entry): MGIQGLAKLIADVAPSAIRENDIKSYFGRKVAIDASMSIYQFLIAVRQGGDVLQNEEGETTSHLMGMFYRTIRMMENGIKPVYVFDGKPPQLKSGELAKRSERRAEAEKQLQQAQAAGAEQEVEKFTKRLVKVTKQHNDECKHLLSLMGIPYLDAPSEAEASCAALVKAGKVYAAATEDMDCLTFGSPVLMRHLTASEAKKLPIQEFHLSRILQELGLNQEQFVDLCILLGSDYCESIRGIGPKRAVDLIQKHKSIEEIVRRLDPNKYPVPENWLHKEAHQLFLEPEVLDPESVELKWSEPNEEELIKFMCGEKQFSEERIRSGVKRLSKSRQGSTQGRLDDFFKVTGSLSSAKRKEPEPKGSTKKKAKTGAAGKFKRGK

For `CS(=O)(=O)Nc1ccc(Cn2c(=O)c(O)c(C(=O)O)c3sccc32)cc1` [Example 16, 6-hydroxy-4-[[4-(methanesulfonamido)phenyl]methyl]-5-oxo-thieno[3,2-b]pyridine-7-carboxylic acid], the IC50 was 2250 to 10000 nM on hXPG; less than 200 nM at hFEN1; 250 to 750 nM against hEXO1, Isoform1.

Consider `O=C(O)c1c(O)c(=O)n(Cc2cnn(Cc3cccnc3)c2)c2ccsc12` [Example 120, 6-hydroxy-5-oxo-4-{[1-(pyridin-3-ylmethyl)-1H-pyrazol-4-yl]methyl}-4,5-dihydrothieno[3,2-b]pyridine-7-carboxylic acid], for which the IC50 is 2250 to 10000 nM against hXPG; less than 200 nM on hFEN1; 2250 to 10000 nM against hEXO1, Isoform1.

For `O=C(O)c1c(O)c(=O)n(Cc2ccccc2)c2ccsc12` [Example 3, 4-benzyl-6-hydroxy-5-oxo-4,5-dihydrothieno[3,2-b]pyridine-7-carboxylic acid], the IC50 fell in the range of 2250 to 10000 nM at hXPG; 750 to 2250 nM against hFEN1; 2250 to 10000 nM against hEXO1, Isoform1.

As for `Cn1cc(Cn2cc(Cn3c(=O)c(O)c(C(=O)O)c4sccc43)cn2)cn1` [Example 143, 6-hydroxy-4-({1-[(1-methyl-1H-pyrazol-4-yl)methyl]-1H-pyrazol-4-yl}methyl)-5-oxo-4,5-dihydrothieno[3,2-b]pyridine-7-carboxylic acid], the IC50 was 2250 to 10000 nM on hXPG; less than 200 nM against hFEN1; 2250 to 10000 nM against hEXO1, Isoform1.

`O=C(O)c1c(O)c(=O)n(Cc2cnn(Cc3cn4ncccc4n3)c2)c2ccsc12` [Example 138]: the IC50 was 2250 to 10000 nM on hXPG; less than 200 nM against hFEN1; 2250 to 10000 nM against hEXO1, Isoform1.

`O=C(O)c1c(O)c(=O)n(Cc2nc(-c3ccccc3)no2)c2ccsc12` [Example 86, 6-hydroxy-5-oxo-4-[(3-phenyl-1,2,4-oxadiazol-5-yl)methyl]-4,5-dihydrothieno[3,2-b]pyridine-7-carboxylic acid]: the IC50 lay in the range of 750 to 2250 nM against hXPG; 250 to 750 nM against hFEN1; 750 to 2250 nM against hEXO1, Isoform1.

For the molecule `O=C(O)c1c(O)c(=O)n(Cc2cccc(Cl)c2)c2ccsc12` [Example 34, 4-(3-chlorobenzyl)-6-hydroxy-5-oxo-4,5-dihydrothieno[3,2-b]pyridine-7-carboxylic acid], the IC50 against hXPG was 2250 to 10000 nM; at hFEN1, less than 200 nM; against hEXO1, Isoform1, 2250 to 10000 nM.

As to `O=C(O)c1c(O)c(=O)n(Cc2cnn(Cc3ccccc3)c2)c2ccsc12` [Example 122, 4-[(1-benzyl-1H-pyrazol-4-yl)methyl]-6-hydroxy-5-oxo-4,5-dihydrothieno[3,2-b]pyridine-7-carboxylic acid], the IC50 at hXPG was 750 to 2250 nM; against hFEN1, less than 200 nM; on hEXO1, Isoform1, 2250 to 10000 nM.

Take `CS(=O)(=O)c1ccc(Cn2cc(Cn3c(=O)c(O)c(C(=O)O)c4sccc43)cn2)cc1` [Example 130, 6-hydroxy-4-({1-[4-(methylsulfonyl)benzyl]-1H-pyrazol-4-yl}methyl)-5-oxo-4,5-dihydrothieno[3,2-b]pyridine-7-carboxylic acid]: the IC50 is 2250 to 10000 nM against hXPG; less than 200 nM against hFEN1; 2250 to 10000 nM at hEXO1, Isoform1.

As to `O=C(O)c1c(O)c(=O)n(Cc2cnn(Cc3ccccn3)c2)c2ccsc12` [Example 119, 6-hydroxy-5-oxo-4-{[1-(pyridin-2-ylmethyl)-1H-pyrazol-4-yl]methyl}-4,5-dihydrothieno[3,2-b]pyridine-7-carboxylic acid], the IC50 against hXPG was greater than 10000 nM; at hFEN1, less than 200 nM; at hEXO1, Isoform1, 2250 to 10000 nM.

As for `CC(=O)Nc1cccc(-c2cccc(Cn3c(=O)c(O)c(C(=O)O)c4sccc43)c2)c1` [Example 2, 4-((3′-acetamido-[1,1′-biphenyl]-3-yl)methyl)-6-hydroxy-5-oxo-4,5-dihydrothieno[3,2-b]pyridine-7-carboxylic acid], the IC50 against hXPG was in the range of 2250 to 10000 nM; on hFEN1, 250 to 750 nM; on hEXO1, Isoform1, 2250 to 10000 nM.

As for `Nc1ccc(Cn2c(=O)c(O)c(C(=O)O)c3sccc32)cc1` [Example 53, 4-(4-aminobenzyl)-6-hydroxy-5-oxo-4,5-dihydrothieno[3,2-b]pyridine-7-carboxylic acid], the IC50 on hXPG is 2250 to 10000 nM; against hFEN1, less than 200 nM; at hEXO1, Isoform1, 2250 to 10000 nM.

On to `CN(C(=O)Cn1cc(Cn2c(=O)c(O)c(C(=O)O)c3sccc32)cn1)c1ccccc1` [Example 155], for which the IC50 against hXPG was 2250 to 10000 nM; on hFEN1, less than 200 nM; against hEXO1, Isoform1, 2250 to 10000 nM.

Regarding `COc1ccc(Cn2c(=O)c(O)c(C(=O)O)c3sc(Cc4ccccc4)cc32)cc1` [Example 29, 2-benzyl-6-hydroxy-4-(4-methoxybenzyl)-5-oxo-4,5-dihydrothieno[3,2-b]pyridine-7-carboxylic acid], the half-maximal inhibitory concentration (IC50) at hXPG fell in the range of 2250 to 10000 nM; against hFEN1, 2250 to 10000 nM; on hEXO1, Isoform1 it was 2250 to 10000 nM.

`O=C(O)c1c(O)c(=O)n(Cc2nnc(-c3ccccc3)o2)c2ccsc12` [Example 85, 6-hydroxy-5-oxo-4-[(5-phenyl-1,3,4-oxadiazol-2-yl)methyl]-4,5-dihydrothieno[3,2-b]pyridine-7-carboxylic acid]: the IC50 against hXPG fell in the range of 750 to 2250 nM; on hFEN1, 250 to 750 nM; against hEXO1, Isoform1 it was 2250 to 10000 nM.

`CS(=O)(=O)c1ccc(Cn2c(=O)c(O)c(C(=O)O)c3sccc32)cc1` [Example 50, 6-hydroxy-4-(4-(methylsulfonyl)benzyl)-5-oxo-4,5-dihydrothieno[3,2-b]pyridine-7-carboxylic acid]: the IC50 lay within 2250 to 10000 nM at hXPG; 250 to 750 nM on hFEN1; 750 to 2250 nM at hEXO1, Isoform1.

As for `COc1ccc(Cn2c(=O)c(O)c(C(=O)O)c3sccc32)cc1` [Example 12, 6-hydroxy-4-[(4-methoxyphenyl)methyl]-5-oxo-thieno[3,2-b]pyridine-7-carboxylic acid], the IC50 was 2250 to 10000 nM at hXPG; less than 200 nM against hFEN1; 2250 to 10000 nM on hEXO1, Isoform1.

In the case of `CC(=O)Nc1ccc(-n2cc(Cn3c(=O)c(O)c(C(=O)O)c4sccc43)cn2)cc1` [Example 22, 4-{[1-(4-acetamidophenyl)-1H-pyrazol-4-yl]methyl}-6-hydroxy-5-oxo-4,5-dihydrothieno[3,2-b]pyridine-7-carboxylic acid], the IC50 against hXPG was 250 to 750 nM; at hFEN1, less than 200 nM; on hEXO1, Isoform1, 250 to 750 nM.

`COc1ccc(-n2cc(Cn3c(=O)c(O)c(C(=O)O)c4sccc43)cn2)cc1` [Example 113, 6-hydroxy-4-{[1-(4-methoxyphenyl)-1H-pyrazol-4-yl]methyl}-5-oxo-4,5-dihydrothieno[3,2-b]pyridine-7-carboxylic acid]: the IC50 against hXPG was 750 to 2250 nM; against hFEN1, less than 200 nM; against hEXO1, Isoform1, 250 to 750 nM.

On to `N#Cc1ccc(Cn2cc(Cn3c(=O)c(O)c(C(=O)O)c4sccc43)cn2)cc1` [Example 127, 4-{[1-(4-cyanobenzyl)-1H-pyrazol-4-yl]methyl}-6-hydroxy-5-oxo-4,5-dihydrothieno[3,2-b]pyridine-7-carboxylic acid], for which the IC50 against hXPG is 2250 to 10000 nM; against hFEN1 it was less than 200 nM; on hEXO1, Isoform1, 750 to 2250 nM.

On to `O=C(O)c1c(O)c(=O)n(Cc2cnn(-c3cccnc3)c2)c2ccsc12` [Example 87, 6-hydroxy-5-oxo-4-{[1-(pyridin-3-yl)-1H-pyrazol-4-yl]methyl}-4,5-dihydrothieno[3,2-b]pyridine-7-carboxylic acid], for which the IC50 against hXPG was 750 to 2250 nM; against hFEN1 it was less than 200 nM; against hEXO1, Isoform1 it was 250 to 750 nM.

Turning to `Cc1cc(Cn2c(=O)c(O)c(C(=O)O)c3sccc32)on1` [Example 83, 6-hydroxy-4-[(3-methylisoxazol-5-yl)methyl]-5-oxo-4,5-dihydrothieno[3,2-b]pyridine-7-carboxylic acid], the IC50 on hXPG is greater than 10000 nM; against hFEN1, 250 to 750 nM; against hEXO1, Isoform1, greater than 10000 nM.
